Where a name gives a salt, the structure may show the parent alone. Read-outs that look alike come from different tables or passages of the source.
Biological target: T1, His6-AspH315–758 (human aspartate/asparagine-β-hydroxylase, AspH) (Homo sapiens, UniProt Q12797)
T1 construct: N-Terminally His6-tagged human AspH315–758 (His6-AspH315–758) was produced in E. coli BL21 (DE3) cells; made in house; host or cells: E. coli BL21 (DE3), pET-28a(+) vector
T1 sequence (Q12797 315-758): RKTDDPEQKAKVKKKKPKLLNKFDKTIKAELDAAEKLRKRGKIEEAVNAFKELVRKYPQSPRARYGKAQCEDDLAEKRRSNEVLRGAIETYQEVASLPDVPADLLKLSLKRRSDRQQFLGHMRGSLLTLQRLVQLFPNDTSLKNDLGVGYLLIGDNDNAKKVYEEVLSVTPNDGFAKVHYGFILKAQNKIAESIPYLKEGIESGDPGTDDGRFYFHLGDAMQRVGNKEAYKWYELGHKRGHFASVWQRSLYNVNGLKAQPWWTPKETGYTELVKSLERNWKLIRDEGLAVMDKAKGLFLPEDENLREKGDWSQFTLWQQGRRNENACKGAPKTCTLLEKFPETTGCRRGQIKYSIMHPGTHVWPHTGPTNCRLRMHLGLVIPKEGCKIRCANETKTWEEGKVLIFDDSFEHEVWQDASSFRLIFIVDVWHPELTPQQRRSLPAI
Assay: SPE-MS AspH inhibition assay (LOPAC screen at fixed 20 μM and IC50 dose-response), hydroxylation of cyclic peptide hFX-CP101–119
Assay type: biochemical

[1] = LOPAC compound at 20uM, plate 3, conversion of substrate peptide
[2] = plate 5 (Pfitzer), test compounds at fixed 20 μM, mean conversion DMSO 32.88
[3] = LOPAC compound at 20uM, plate 2, conversion of substrate peptide
[4] = LOPAC compound at 20uM, plate 2, normalised to DMSO and 2,4-PDCA controls
[5] = LOPAC compound at fixed 20 uM, plate 1, normalised to DMSO and 2,4-PDCA controls
[6] = LOPAC compound at fixed 20 uM, substrate conversion, plate 1
[7] = LOPAC Plate 4, compound at 20 uM, substrate conversion
[8] = AspH activity, fixed compound concentration 20 μM, initial LOPAC screen, 0.5%v/v DMSO, read-out: Inhibition at 20 µM [%]
[9] = LOPAC compound at 20uM, plate 2, normalised to DMSO and 2,4-PDCA controls, read-out: Plate 2 (% inhibition)
[10] = read-out: Plate 2 (% inhibition)

O=C1C(SCCO)=C(SCCO)C(=O)c2ccccc21 [NSC 95397]
Plate 2 (% conversion): 23.59%
Plate 2 (% inhibition) (20 µM): 36.92%

CC1COc2c(N3CCN(C)CC3)c(F)cc3c(=O)c(C(=O)O)cn1c23 (centres unmarked) [Ofloxacin]
Plate 3 (% conversion) [1]: 41.94%

N#Cc1ccc([C@H]2CCCC[C@H]2O)cc1C(F)(F)F [PF-998425]
Plate 5 (% conversion) [2]: 24.94%

COC1=C(OC)C(=O)c2ccccc2C1=O [2,3-Dimethoxy-1,4-naphthoquinone]
Plate 2 (% conversion): 33.76%
Plate 2 (% inhibition) (20 µM): 6.56%

CCCn1c(=O)c(C)cn2nc(N)nc12 [ICI 63,137]
% conversion: 30.53%

COC(=O)[C@@H](N)Cc1ccc(O)c(O)c1.Cl
Plate 2 (% conversion) [3]: 10.54%
Plate 2 (% inhibition) [4]: 75.90%

CCCCCN(CCCCC)C(=O)C(CCC(=O)O)NC(=O)c1ccc(Cl)c(Cl)c1 (centres unmarked) [Lorglumide sodium]
Plate 3 (% conversion) [1]: 33.56%

CCn1cc(C(=O)O)c(=O)c2cc(F)c(N3CCNC(C)C3)c(F)c21 (centres unmarked) [Lomefloxacin hydrochloride]
Plate 3 (% conversion) [1]: 37.37%

CC[C@H]1OC(=O)[C@H](C)[C@@H](O[C@H]2C[C@@](C)(OC)[C@@H](O)[C@H](C)O2)[C@H](C)[C@@H](O[C@@H]2O[C@H](C)C[C@H](N(C)C)[C@H]2O)[C@](C)(O)C[C@@H](C)CN(C)[C@H](C)[C@@H](O)[C@]1(C)O [Azithromycin dihydrate]
Plate 1 (% inhibition) [5]: -13.45%
Plate 1 (% conversion) [6]: 40.39%

CC1=C(CC(=O)O)c2cc(F)ccc2/C1=C\c1ccc(S(C)(=O)=O)cc1 [Sulindac sulfone]
% conversion [7]: 33.98%

CCCCC[C@H](CC(=O)NO)C(=O)N[C@H](C(=O)N1CCC[C@H]1CO)C(C)C [Actinonin]
Plate 1 (% inhibition) [5]: -5.32%
Plate 1 (% conversion) [6]: 37.66%

C=CCN1CC[C@]23c4c5ccc(O)c4O[C@H]2C(=O)CC[C@@]3(O)[C@H]1C5 [Naloxone hydrochloride]
Plate 3 (% conversion): 40.30%

Oc1cc2c(cc1O)CN(C(=S)NCCc1ccc(Cl)cc1)CCC2 [Capsazepine, capsazepine, reference compound]
IC50 (50 nM His6-AspH315–758, 1.0 μM hFX-CP101–119, 3 μM 2OG, 2 μM Fe(II), 50 mM HEPES pH 7.5, 20 °C, mean ± SD, n = 2 (2,4-PDCA n = 10), read-out: IC50): 3.41 ± 0.28 µM
inhibition at 20 µM [8]: 99.7%
Plate 2 (% conversion) [3]: 2.59%
inhibition at 20 µM [9]: 99.7%

Cl.NCCCCC(=O)O [5-Aminovaleric acid hydrochloride]
Plate 1 (% inhibition) [5]: 15.05%
Plate 1 (% conversion) [6]: 30.82%

Cc1cnc(NC(=O)C2=C(O)c3ccccc3S(=O)(=O)N2C)s1 [Meloxicam sodium]
Plate 3 (% conversion) [1]: 33.11%

CCCCC1C(=O)N(c2ccccc2)N(c2ccccc2)C1=O [Phenylbutazone]
% conversion [7]: 37.63%
inhibition at 20 µM (LOPAC Plate 4, compound at 20 uM, read-out: % inhibition): -3.41%

COc1ccc2c(c1OC)C(=O)OC2C1c2cc3c(cc2CCN1C)OCO3 (single isomer, unassigned; (+)) [(+)-Hydrastine]
Plate 2 (% conversion): 38.28%
inhibition at 20 µM [10]: -6.94%

CN1C[C@H](C(=O)N[C@]2(C)O[C@@]3(O)[C@@H]4CCCN4C(=O)[C@H](Cc4ccccc4)N3C2=O)C[C@@H]2c3cccc4[nH]cc(c34)C[C@H]21 [Dihydroergotamine methanesulfonate]
Plate 2 (% conversion): 37.10%
inhibition at 20 µM [10]: -3.42%

N[C@H](CO)C(=O)O [D-Serine]
% conversion [7]: 29.64%

CC(=O)Oc1cc(C(C)C)c(OCCN(C)C)cc1C [Moxisylyte hydrochloride]
Plate 3 (% conversion) [1]: 37.49%

NCCSSCCN [Cystamine dihydrochloride]
Plate 1 (% inhibition) [5]: -7.76%
Plate 1 (% conversion) [6]: 38.48%

CC(C(O)c1ccc(O)cc1)N1CCC(Cc2ccccc2)CC1.CC(C(O)c1ccc(O)cc1)N1CCC(Cc2ccccc2)CC1.O=C(O)C(O)C(O)C(=O)O (centres unmarked) [Ifenprodil tartrate]
Plate 3 (% conversion) [1]: 17.74%

O=P1(N(CCCl)CCCl)NCCCO1 (centres unmarked) [Cyclophosphamide monohydrate]
Plate 1 (% conversion): 38.48%
Plate 1 (% inhibition): -7.77%

CN(C(=O)CCCOc1ccc2[nH]c(=O)ccc2c1)C1CCCCC1 [Cilostamide]
Plate 1 (% inhibition) [5]: -8.28%
Plate 1 (% conversion) [6]: 38.65%

NS(=O)(=O)c1cc2c(cc1Cl)N=CNS2(=O)=O [Chlorothiazide]
Plate 1 (% inhibition) [5]: -4.46%
Plate 1 (% conversion) [6]: 37.37%

NC(N)=NCCCCN=C(N)N [Arcaine sulfate]
Plate 1 (% inhibition) [5]: -5.14%
Plate 1 (% conversion) [6]: 37.60%

Br.CCCN1CCc2cc(O)cc3c2[C@H]1Cc1ccc(O)c(O)c1-3
Plate 2 (% conversion) [3]: 6.67%
Plate 2 (% inhibition) [4]: 87.47%

CC1=C(/C=C/C(C)=C/C=C/C(C)=C\C(=O)O)C(C)(C)CCC1 [13-cis-retinoic acid]
% conversion [7]: 23.26%

Oc1ccc(C2CNCCc3c2cc(O)c(O)c3Cl)cc1 (centres unmarked) [Fenoldopam bromide, reference compound]
inhibition at 20 µM [8]: 98.3%
Plate 2 (% conversion) [3]: 3.05%
inhibition at 20 µM [9]: 98.3%

CC1(C)CCC(NC(=O)[C@@H](N)CCC(=O)O)CC1 [CR 2249]
Plate 3 (% conversion) [1]: 40.87%

O=C(Nc1ccc2c(c1)CCN(Cc1ncn[nH]1)C2)c1ccccc1-c1ccc(C(F)(F)F)cc1 [CP-346086]
Plate 5 (% conversion): 46.02%
Plate 5 (% inhibition): -28.53%

O=P(O)(O)C(O)(Cn1ccnc1)P(=O)(O)O [Zoledronic acid monohydrate]
Plate 3 (% conversion): 37.14%

Cc1cc(O)c2c(c1)C(=O)c1cc(O)cc(O)c1C2=O [Emodin]
Plate 2 (% conversion): 37.82%
inhibition at 20 µM [9]: -5.58%

O=C(O)/C=C1\CCCc2ccccc2C1O (centres unmarked) [NCS-382]
Plate 3 (% conversion) [1]: 38.57%

CSc1nc(N)c2ncn([C@@H]3O[C@H](COP(=O)([O-])OP(=O)([O-])[O-])[C@@H](O)[C@H]3O)c2n1.O.[Na+].[Na+].[Na+]
Plate 1 (% inhibition) [5]: 16.28%
Plate 1 (% conversion) [6]: 30.40%

COc1ccc(/C=C/c2nc(NCCCN(C)C)c3ccccc3n2)cc1.Cl.Cl.O [CP-31398 dihydrochloride hydrate]
% conversion [7]: 42.00%

CN(C)NC(=O)CCC(=O)O [Daminozide, daminozide, reference compound]
IC50 [μM] (pH 7.5): inactive

Cc1cc(C(C)(C)C)cc(C)c1CC1=NCCN1 [Xylometazoline hydrochloride]
% conversion: 31.88%

CCCN1CCC[C@H](c2cccc(O)c2)C1.Cl [R(+)-3PPP hydrochloride]
% inhibition (LOPAC Plate 4, compound at 20 uM): 3.51%
% conversion [7]: 35.27%

CN1[C@@H]2CC[C@H]1C[C@@H](OC(=O)C(CO)c1ccccc1)C2 (some centres unmarked) [Atropine sulfate]
Plate 1 (% inhibition): 2.77%

CCCNC(C)C(=O)Nc1ccccc1C (centres unmarked) [Prilocaine hydrochloride]
% conversion [7]: 24.92%

CCNc1nc2c(ncn2[C@H]2C[C@H](O)[C@@H](CO)O2)c(=O)[nH]1 [N2-Ethyl-2-deoxyguanosine]
% conversion [7]: 26.09%

NC(=O)c1cc[n+](CC2=C(C(=O)[O-])N3C(=O)[C@@H](NC(=O)C(c4ccccc4)S(=O)(=O)[O-])[C@H]3SC2)cc1.O.[Na+] (some centres unmarked) [Cefsulodin sodium salt hydrate]
Plate 1 (% inhibition) [5]: 64.70%
Plate 1 (% conversion) [6]: 14.14%

C[C@H](N[C@@H](CCc1ccccc1)C(=O)O)C(=O)N1CCC[C@H]1C(=O)O.O.O [Enalaprilat dihydrate]
% conversion [7]: 37.37%

CC(=O)O[C@H]1Cc2ccccc2N(C(N)=O)c2ccccc21 [BIA 2-093]
% conversion [7]: 30.46%

CC(C)NCC(O)COc1cccc2ccccc12.Cl (racemic) [(±)-Propranolol hydrochloride]
Plate 3 (% conversion): 40.68%

O=C(CCSCc1ccco1)NNC(=O)N1Cc2ccccc2Oc2ccc(Cl)cc21 [SC-51322]
% conversion [7]: 23.51%
Plate 5 (% inhibition) (plate 5 (Pfitzer), test compounds at fixed 20 μM): 13.59%
Plate 5 (% conversion) [2]: 31.69%

Source: paper PMC7251097, “Aspartate/asparagine-β-hydroxylase: a high-throughput mass spectrometric assay for discovery of small molecule inhibitors” (Scientific Reports, 2020)
